According to US10555987B2, “GHRH agonists for the treatment of ischemic disorders” (UNIVERSITY OF MIAMI, priority 2012, dated 2020):
Non-standard residues stand in square brackets, D forms with d. Residues, ends and D or L forms follow the SMILES beside them. *: point of attachment. Phe(F5) = N[C@@H](Cc1c(F)c(F)c(F)c(F)c1F)C(=O)O; Desaminotyrosyl = O=C(CCc1ccc(O)cc1)*; NMeY = CN[C@@H](Cc1ccc(O)cc1)C(=O)O; Nle = CCCC[C@H](N)C(=O)O; Orn = NCCC[C@H](N)C(=O)O; Abu = CC[C@H](N)C(=O)O; GABA = NCCCC(=O)O

What was measured:
GH release = assay: In vivo endocrine activity, GH release after subcutaneous administration (Table 9); settings: rat; for Stimulation of growth hormone levels after subcutaneous administration (in words): s.c.; for GH releasing potency relative to JI-38 (=1): subcutaneous (s.c.) injection
Experimental: Subcutaneous Administration. Adult male rats were used and anesthetized with pentobarbital (6 mg/100 g, b.w.), by i.p. injection. […] Blood samples were taken from the jugular vein 5, 15 and/or 30 minutes after the injection. The blood samples were centrifuged, plasma was removed and the GH level was measured byELISA. The results are summarized in terms of potency in Table 9.

[1] = system: myocardial infarction (Fisher-344 rats); assay: Serial echocardiography after MI, compared to JI-38 (Example 15, Table 15); type: in vivo, rat; parameters: key to LVEDD: Left Ventricular End Diastolic Diameter / LVESD: Left Ventricular End Systolic Diameter / VD: Ventricular Diastole / VS: Ventricular Systole / EF: Ejection Fraction / FS: Fraction Shortening: ↓: downward arrow denotes lower than JI-38; ↑: upward arrow denotes greater than JI-38; =denotes same as JI-38; ⬇⬇: double arrow denotes greater effect; ⬆⬆: double arrow denotes greater effect; settings: for EF: Ejection Fraction / FS: Fraction Shortening / LVEDD: Left Ventricular End Diastolic Diameter / LVESD: Left Ventricular End Systolic Diameter / VD: Ventricular Diastole / VS: Ventricular Systole: in comparison to JI-38
How it was run: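 Female 6-month-old Fisher-344 rats with permanent left coronary artery ligation received placebo, JI-38 or GHRH agonists subcutaneously twice daily from 2 h post-surgery (10 per group). Under 2% isoflurane, M-mode LVEDD, LVESD and FS plus long-axis EF were measured at baseline, 2 days, 1, 2 and 4 weeks.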

GHRH receptor [2] = target: T1, GHRH receptor (Homo sapiens, UniProt Q02643); assay: Receptor binding in vitro, 125I-labeled [His1,Nle27]-hGHRH(1-32)NH2, membrane receptors of human anterior pituitary cells (Table 14); settings: for Relative affinity (Binding potency) compared to JI-38: JI-38 = 1; for Relative affinity (Binding potency) compared to hGHRH(1-29): hGHRH(1-29)NH2 = 1
T1 sequence (Q02643 23-423): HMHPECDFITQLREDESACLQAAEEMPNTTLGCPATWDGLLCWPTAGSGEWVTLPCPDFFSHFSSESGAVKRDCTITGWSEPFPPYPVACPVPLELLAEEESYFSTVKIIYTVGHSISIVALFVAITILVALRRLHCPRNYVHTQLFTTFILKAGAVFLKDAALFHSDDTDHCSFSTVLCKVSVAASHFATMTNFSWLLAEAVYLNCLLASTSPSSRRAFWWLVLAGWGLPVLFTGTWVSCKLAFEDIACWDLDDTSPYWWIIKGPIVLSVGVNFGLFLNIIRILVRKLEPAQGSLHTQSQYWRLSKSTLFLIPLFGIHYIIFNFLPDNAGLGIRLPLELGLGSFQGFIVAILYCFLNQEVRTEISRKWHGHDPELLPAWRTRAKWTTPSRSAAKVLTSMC

GHRH receptor [3] = target: T1, GHRH receptor; assay: GHRH receptor binding, competition with 125I-labeled JV-1-42, human pituitary membrane homogenates (Table 7); parameters: Normal human pituitaries were purchased from the National Hormone and Peptide Program; tissue National Hormone and Peptide Program (A.F. Parlow, Harbor-UCLA Medical Center, Torrance, Calif.); host or cells: normal human pituitary, membrane fraction; settings: JI-38 = 1, Table 7
Excerpt: Normal human pituitaries were purchased from the National Hormone and Peptide Program (A.F. Parlow, Los Angeles, County Harbor-UCLA Medical Center, Torrance, Calif.).

Row | Relative affinity (Binding potency) compared to JI-38 (GHRH receptor [2]) | Relative affinity (Binding potency) compared to hGHRH(1-29) (GHRH receptor [2]) | Relative affinity (Binding potency) vs JI-38 (GHRH receptor [3]) | Relative affinity (Binding potency) compared to JI-38 (GHRH receptor [2]; listed as MR-403) | Structure (SMILES) | Stimulation of growth hormone levels after subcutaneous administration (in words) (GH release) | GH releasing potency relative to JI-38 (=1) (GH release; 15 min after) | GH releasing potency relative to JI-38 (=1) (GH release; 30 min after) | EF: Ejection Fraction [1] | FS: Fraction Shortening [1] | LVEDD: Left Ventricular End Diastolic Diameter [1] | LVESD: Left Ventricular End Systolic Diameter [1] | VD: Ventricular Diastole [1] | VS: Ventricular Systole [1] | GHRH receptor binding affinity (in words) (GHRH receptor [2]; compared to JI-38) | cardiac dimensions (LVEDD and LVESD) ([1]; after MI) | cardiac performance (EF and FS) ([1]; after MI)
1 | 1.27 | 3.54 | 13.18 | – | CCCC[C@H](NC(=O)[C@@H](NC(=O)[C@H](CC(=O)O)NC(=O)[C@H](CCC(N)=O)NC(=O)[C@H](CC(C)C)NC(=O)[C@H](CC(C)C)NC(=O)[C@H](CCCN)NC(=O)[C@H](CCCNC(=N)N)NC(=O)[C@H](C)NC(=O)[C@H](CO)NC(=O)[C@H](CC(C)C)NC(=O)[C@H](CCC(N)=O)NC(=O)[C@H](CC)NC(=O)[C@H](CC(C)C)NC(=O)[C@@H](NC(=O)[C@H](CCCN)NC(=O)[C@H](CCCNC(=N)N)NC(=O)[C@H](Cc1ccc(O)cc1)NC(=O)[C@H](CO)NC(=O)[C@H](CC(N)=O)NC(=O)[C@@H](NC(=O)[C@H](Cc1c(F)c(F)c(F)c(F)c1F)NC(=O)[C@@H](NC(=O)[C@H](C)NC(=O)[C@H](CC(=O)O)NC(=O)[C@@H](C)NC(=O)CCc1ccc(O)cc1)[C@@H](C)CC)[C@@H](C)O)C(C)C)[C@@H](C)CC)C(=O)N[C@@H](CO)C(=O)N[C@@H](CCCNC(=N)N)C(=O)NCCCC(N)=O [Peptide P-25502, [Dat^1, D-Ala^2, Fpa5^6, Orn^12, Abu^15, Orn^21, Nle^27, Gab^30]hGHRH(1-30)NH2] (Desaminotyrosyl-[dA]DAI[Phe(F5)]TNSYR[Orn]VL[Abu]QLSAR[Orn]LLQDI[Nle]SR[GABA]-NH2) | stimulated greater growth hormone levels than hGHRH or JI-38 | 1.10 | 0.94 | = | = | = | = | ↑ | ↑ | – | – | –
2 | – | 10.30 | 27.19 | 3.69 | CCCC[C@H](NC(=O)[C@@H](NC(=O)[C@H](CC(=O)O)NC(=O)[C@H](CCC(N)=O)NC(=O)[C@H](CC(C)C)NC(=O)[C@H](CC(C)C)NC(=O)[C@H](CCCN)NC(=O)[C@H](CCCNC(=N)N)NC(=O)[C@H](C)NC(=O)[C@H](CO)NC(=O)[C@H](CC(C)C)NC(=O)[C@H](CCC(N)=O)NC(=O)[C@H](CC)NC(=O)[C@H](CC(C)C)NC(=O)[C@@H](NC(=O)[C@H](CCCN)NC(=O)[C@H](CCCNC(=N)N)NC(=O)[C@H](Cc1ccc(O)cc1)NC(=O)[C@H](CO)NC(=O)[C@H](CCC(N)=O)NC(=O)[C@@H](NC(=O)[C@H](Cc1ccccc1)NC(=O)[C@@H](NC(=O)[C@H](C)NC(=O)[C@H](CC(=O)O)NC(=O)[C@@H](C)NC(=O)[C@H](Cc1ccc(O)cc1)NC)[C@@H](C)CC)[C@@H](C)O)C(C)C)[C@@H](C)CC)C(=O)N[C@@H](CC(=O)O)C(=O)N[C@@H](CCCNC(=N)N)C(=O)NC [Peptide P-27403, [N—Me-Tyr^1, D-Ala^2, Gln^8, Orn^12, Abu^15, Orn^21, Nle^27, Asp^28]hGHRH(1-29)NH—CH3] (H-[NMeY][dA]DAIFTQSYR[Orn]VL[Abu]QLSAR[Orn]LLQDI[Nle]DR-NHMe) | stimulated greater growth hormone levels than hGHRH or JI-38 | 3.60 | 2.57 | = | ↓ | ↑ | ↑ | ↑ | ↑ | highest GH-releasing potency and binding affinity | – | –
3 | 2.45 | 6.83 | 5.00 | – | CCCC[C@H](NC(=O)[C@@H](NC(=O)[C@H](CC(=O)O)NC(=O)[C@H](CCC(N)=O)NC(=O)[C@H](CC(C)C)NC(=O)[C@H](CC(C)C)NC(=O)[C@H](CCCN)NC(=O)[C@H](CCCNC(=N)N)NC(=O)[C@H](C)NC(=O)[C@H](CO)NC(=O)[C@H](CC(C)C)NC(=O)[C@H](CCC(N)=O)NC(=O)[C@H](CC)NC(=O)[C@H](CC(C)C)NC(=O)[C@@H](NC(=O)[C@H](CCCN)NC(=O)[C@H](CCCNC(=N)N)NC(=O)[C@H](Cc1ccc(O)cc1)NC(=O)[C@H](CO)NC(=O)[C@H](CCC(N)=O)NC(=O)[C@@H](NC(=O)[C@H](Cc1c(F)c(F)c(F)c(F)c1F)NC(=O)[C@@H](NC(=O)[C@H](C)NC(=O)[C@H](CC(=O)O)NC(=O)[C@@H](C)NC(=O)[C@H](Cc1ccc(O)cc1)NC)[C@@H](C)CC)[C@@H](C)O)C(C)C)[C@@H](C)CC)C(=O)N[C@@H](CC(=O)O)C(=O)N[C@@H](CCCNC(=N)N)C(=O)NC [Peptide P-27404, [N—Me-Tyr^1, D-Ala^2, Fpa5^6, Orn^12, Abu^15, Orn^21, Nle^27, Asp^28]hGHRH (1-29)NH—CH3] (H-[NMeY][dA]DAI[Phe(F5)]TQSYR[Orn]VL[Abu]QLSAR[Orn]LLQDI[Nle]DR-NHMe) | stimulated greater growth hormone levels than hGHRH or JI-38 | 2.07 | 1.47 | = | = | ↑ | = | ↑ | ↑ | – | – | –
4 | 2.71 | 7.57 | 4.10 | – | CCCC[C@H](NC(=O)[C@@H](NC(=O)[C@H](CC(=O)O)NC(=O)[C@H](CCC(N)=O)NC(=O)[C@H](CC(C)C)NC(=O)[C@H](CC(C)C)NC(=O)[C@H](CCCN)NC(=O)[C@H](CCCNC(=N)N)NC(=O)[C@H](C)NC(=O)[C@H](CO)NC(=O)[C@H](CC(C)C)NC(=O)[C@H](CCC(N)=O)NC(=O)[C@H](CC)NC(=O)[C@H](CC(C)C)NC(=O)[C@@H](NC(=O)[C@H](CCCN)NC(=O)[C@H](CCCNC(=N)N)NC(=O)[C@H](Cc1ccc(O)cc1)NC(=O)[C@H](CO)NC(=O)[C@H](CC(N)=O)NC(=O)[C@@H](NC(=O)[C@H](Cc1ccccc1)NC(=O)[C@@H](NC(=O)[C@H](C)NC(=O)[C@H](CC(=O)O)NC(=O)[C@@H](C)NC(=O)[C@H](Cc1ccc(O)cc1)NC)[C@@H](C)CC)[C@@H](C)O)C(C)C)[C@@H](C)CC)C(=O)N[C@@H](CC(=O)O)C(=O)N[C@@H](CCCNC(=N)N)C(=O)NC [Peptide P-27409, [N—Me-Tyr^1, D-Ala^2, Orn^12, Abu^15, Orn^21, Nle^27, Asp^28]hGHRH(1-29)NH—CH3] (H-[NMeY][dA]DAIFTNSYR[Orn]VL[Abu]QLSAR[Orn]LLQDI[Nle]DR-NHMe) | stimulated greater growth hormone levels than hGHRH or JI-38 | 1.47 | 1.31 | ⬆⬆ | ⬆⬆ | ⬇⬇ | ⬇⬇ | = | = | – | reduced cardiac dimensions | substantial improvement on cardiac performance
